Test results as given in patent US20260234630A1, “Methods for Treating Multiple Myeloma” (Celgene Corporation, priority 2022, published 2026).

Assays:
Format in all cases: cell-based
UHRF1 = assay: Western blot of UHRF1 protein in MM cells
Procedure: FIG. 1A-1F. Down regulation of UHRF1 transcription by IMiDs correlates with drug sensitivity of multiple myeloma. (1A) Volcano plot of protein expression changes determined by mass spectrometry in H929 cells at 24 hr of treatment with CC-220 (0.1 μM) or DMSO control. X axis, Log2fold change (FC); Y axis, significance,-log 10 [p-value]. […] (1B) Volcano plot of gene expression changes determined by Affymetrix microarray in H929 cells treated with POM (1 μM) or DMSO for 24 hr. X axis, Log2fold change (FC); Y axis, significance,-log 10 [p-value], n=2 technical replicates). […] (1C) Western blot analysis protein expression of UHRF1, Ikaros, Aiolos and ZFP91 in H929 cells treated with 1 μM POM for indicated time. (1D) qRT-PCR analysis of UHRF1 gene expression levels in cells as in (1C). Error bars represent the SEM from duplicate measurements. (1E) Western blot analysis protein expression of UHRF1 and indicated proteins in MM cells treated with DMSO (−) or 1 μM POM (+) for 3 days. GAPDH serves as a loading control. (1F) Thymidine incorporation of various MM cell lines treated with indicated dose of POM for 3 days. Error bars represent the SEM from technical replicates.
FIG. 2A-2E. UHRF1 expression is positively regulated by Ikaros and Aiolos in IMiDs sensitive MM cells. (2A) Western blot analysis protein expression of UHRF1, Ikaros, Aiolos, ZFP91 and Cereblon expression in control [shLuciferase (shLuc)] and cereblon knockdown (shCRBN) H929 cells treated with DMSO and 1 μM POM for 3 days. GAPDH, loading control. Arrow head, UHRF1. (2B) qRT-PCR analysis of UHRF1 gene expression levels in cells as in (2A). Data was normalized to ACTB. Error bars represent the SEM of technical duplicates. *** P<0.001 (Two-tailed unpaired Student's t-test). (2C) Western blot analysis protein expression of UHRF1, Ikaros and Aiolos in stably transduced H929 cells after Dox induction (0, 10, 50 or 100 ng/ml) for 3 days of non-target shRNA (shNT) or shRNAs targeting Ikaros (shIKZF1) or Aiolos (shIKZF3). (2D) qRT-PCR analysis of UHRF1 gene expression levels in cells as in (2C). Shown are cells induced with Dox (50 ng/ml) for 3 days. Data was normalized to GAPDH. Error bars represent the SEM of technical duplicates. *P<0.05, ** P<0.01, *** P<0.001, **** P<0.0001 (Two-tailed unpaired Student's t-test). (2E) ChIP-qPCR analysis of the occupancy Aiolos (upper panel) or H3K27ac (lower panel) occupancy at transcription star site (TSS), gene body (+7 kb) and gene end (GE) of UHRF1 gene in H929, MM1.S or RPMI 8226 cells treated with DMSO or 1 μM POM for 24 hr. ChIP with control rabbit IgG (IgG) serves as a negative control. Error bars represent the SEM of technical triplicates. * P<0.05, ** P<0.01, **** P<0.0001 (Two-tailed unpaired Student's t-test).
FIG. 6A-6D. […]

Aiolos at UHRF1 promoter = assay: ChIP-qPCR of Aiolos occupancy at UHRF1 gene; conditions: H929 cells, 1 μM POM, 24 hr
Procedure: (§1) FIG. 2A-2E. UHRF1 expression is positively regulated by Ikaros and Aiolos in IMiDs sensitive MM cells. (2A) Western blot analysis protein expression of UHRF1, Ikaros, Aiolos, ZFP91 and Cereblon expression in control [shLuciferase (shLuc)] and cereblon knockdown (shCRBN) H929 cells treated with DMSO and 1 μM POM for 3 days. GAPDH, loading control. Arrow head, UHRF1. (2B) qRT-PCR analysis of UHRF1 gene expression levels in cells as in (2A). Data was normalized to ACTB. Error bars represent the SEM of technical duplicates. *** P<0.001 (Two-tailed unpaired Student's t-test). […]
(§2) ChIP-qPCR was performed using ChIP-IT Express Enzymatic kit (Active Motif) according to the manufacture manual with some modifications. […] DNA was purified using a PCR purification kit (Qiagen) and analyzed by qPCR using the Power SYBR Green PCR Master Mix.
(§3) Procedures afterward were performed according to the manufacture manual. Eluted DNA was purified using a PCR purification kit (Qiagen) and analyzed by quantitative real-time PCR on the Viia 7 Real Time PCR System using the Power SYBR Green PCR master mix (Applied Biosystems). Statistical differences were calculated using a […] unpaired Student's t-test.

H3K27ac at UHRF1 TSS = assay: ChIP-qPCR of H3K27ac occupancy at UHRF1 gene; conditions: H929 and MM1.S cells, 1 μM POM, 24 hr
Procedure: as §1, §2, §3

Nc1cccc2c1C(=O)N(C1CCC(=O)NC1=O)C2=O (stereo not drawn) [POM, pomalidomide]
time to profound reduction of UHRF1 protein level (UHRF1; H929 cells, POM 1 μM, time course): ≤ 48 h
UHRF1 protein levels (UHRF1; MC/CAR and RPMI 8226 cells, 1 μM POM, 3 days): without affecting
UHRF1 expression level (UHRF1; sensitive cell lines H929, MM1.S, DF15 and U266, 1 μM POM, 72 hours): downregulated
downregulation of UHRF1 protein by POM under cereblon knockdown (UHRF1; shCRBN vs shLuc H929 cells, 1 μM POM, 3 days): rescued
UHRF1 promoter occupancy of Aiolos (Aiolos at UHRF1 promoter): drastically reduced
H3K27ac level at the UHRF1 TSS (H3K27ac at UHRF1 TSS): drastically reduced
